Reference: ChEMBL document CHEMBL3813663, “Aryl morpholino triazenes inhibit cytochrome P450 1A1 and 1B1” (Bioorg Med Chem Lett, 2016)

What was measured:
CYP1B1 = molecular target: T1, CYP1B1 (Homo sapiens, UniProt Q16678); experiment: in vitro
T1 sequence (Q16678 whole entry): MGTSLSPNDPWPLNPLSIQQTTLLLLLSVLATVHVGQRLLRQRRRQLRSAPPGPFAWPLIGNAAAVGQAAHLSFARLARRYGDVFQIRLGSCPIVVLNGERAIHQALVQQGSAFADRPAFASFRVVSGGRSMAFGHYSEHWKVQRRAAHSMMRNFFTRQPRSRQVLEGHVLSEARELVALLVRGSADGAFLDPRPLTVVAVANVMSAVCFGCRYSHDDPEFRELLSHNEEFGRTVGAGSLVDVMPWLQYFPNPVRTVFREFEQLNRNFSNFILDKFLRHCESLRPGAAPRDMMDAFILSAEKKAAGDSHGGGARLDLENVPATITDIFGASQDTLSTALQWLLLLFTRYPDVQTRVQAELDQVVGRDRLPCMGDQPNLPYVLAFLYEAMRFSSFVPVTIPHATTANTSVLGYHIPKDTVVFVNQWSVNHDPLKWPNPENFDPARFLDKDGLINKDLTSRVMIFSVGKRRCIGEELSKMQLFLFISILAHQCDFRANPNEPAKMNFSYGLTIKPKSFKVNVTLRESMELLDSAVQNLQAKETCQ
Description: Inhibition of recombinant human CYP1B1 expressed in Escherichia coli DH5aplha cells assessed as O-deethylation of ethoxyresorufin in presence of NADPH at 100 uM measured after 2 mins by spectrofluorometric method

CYP1A1 = CYP1A1 (Homo sapiens, UniProt P04798); experiment: in vitro
Sequence of CYP1A1 (P04798 whole entry): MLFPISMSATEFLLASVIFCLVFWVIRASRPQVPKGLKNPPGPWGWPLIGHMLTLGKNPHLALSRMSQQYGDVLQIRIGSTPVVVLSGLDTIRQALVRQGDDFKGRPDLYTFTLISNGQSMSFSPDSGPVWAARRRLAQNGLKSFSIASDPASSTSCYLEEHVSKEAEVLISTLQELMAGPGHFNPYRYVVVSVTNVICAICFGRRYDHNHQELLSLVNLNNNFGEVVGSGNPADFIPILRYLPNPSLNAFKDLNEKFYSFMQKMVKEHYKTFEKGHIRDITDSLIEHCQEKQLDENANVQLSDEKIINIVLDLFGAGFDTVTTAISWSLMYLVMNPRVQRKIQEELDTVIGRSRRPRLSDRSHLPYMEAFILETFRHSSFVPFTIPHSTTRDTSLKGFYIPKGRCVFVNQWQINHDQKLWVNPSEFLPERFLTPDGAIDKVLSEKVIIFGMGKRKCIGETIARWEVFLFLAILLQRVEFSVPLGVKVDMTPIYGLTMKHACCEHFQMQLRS
Description: Inhibition of recombinant human CYP1A1 expressed in Escherichia coli DH5aplha cells assessed as O-deethylation of ethoxyresorufin in presence of NADPH at 100 uM measured after 2 mins by spectrofluorometric method

Cytochrome P450 1B1 = molecular target: T2, Cytochrome P450 1B1 (Homo sapiens, UniProt Q16678)
T2 sequence (Q16678 whole entry): T1 sequence (Q16678 whole entry)
Description: Inhibition of recombinant human CYP1B1 expressed in Escherichia coli DH5aplha cells assessed as O-deethylation of ethoxyresorufin in presence of NADPH measured after 2 mins by spectrofluorometric method

Cytochrome P450 1A1 = Cytochrome P450 1A1 (Homo sapiens, UniProt P04798)
Sequence of Cytochrome P450 1A1 (P04798 whole entry): as above
Description: Inhibition of recombinant human CYP1A1 expressed in Escherichia coli DH5aplha cells assessed as O-deethylation of ethoxyresorufin in presence of NADPH measured after 2 mins by spectrofluorometric method

[1] = probe ethoxyresorufin (O-deethylation)

Row | SMILES | activity at 2 min, 100 µM (CYP1B1; [1]) | activity at 2 min, 100 µM (CYP1A1; [1]) | IC50 (Cytochrome P450 1B1) | activity at 2 min, 100 µM (CYP1B1) | IC50 (Cytochrome P450 1A1) | activity at 2 min, 100 µM (CYP1A1)
1 | COc1cc(N)cc(OC)c1OC | 100% | 95% |  |  |  | 
2 | O=[N+]([O-])c1ccc(/N=N/N2CCOCC2)cc1 |  | 79% | 2 µM | 16% | 115 µM | 
3 | COc1cc(/N=N/N2CCOCC2)cc(OC)c1OC | 14% | 8% | 18 µM |  | 10 µM | 
4 | c1ccc(/N=N/N2CCOCC2)cc1 | 74% | 56% | 163 µM |  | 120 µM | 
5 | O=C(O)c1ccc(/N=N/N2CCOCC2)cc1 | 81% | 67% | 400 µM |  | 167 µM | 
6 | CC(=O)c1ccc(/N=N/N2CCOCC2)cc1 | 100% | 70% |  |  | 82 µM | 
7 | Brc1ccc(/N=N/N2CCOCC2)cc1 | 59% |  | 7 µM |  | 63 µM | 53%
8 | Nc1ccc(Br)cc1 [4-BROMOANILINE] | 94% | 100% |  |  |  | 
9 | Nc1ccc([N+](=O)[O-])cc1 [4-NITROANILINE] | 92% | 100% |  |  |  | 
10 | Nc1ccc(C(=O)O)cc1 [AMINOBENZOIC ACID] | 75% | 100% | > 120 µM |  |  | 
11 | Nc1ccccc1 [ANILINE] | 100% | 100% |  |  |  | 
12 | C1COCCN1 [MORPHOLINE] |  |  |  | 100% |  | 91%
13 | Oc1ccc(/C=C/c2cc(O)cc(O)c2)cc1 [RESVERATROL] |  | 11% | 55 µM | 56% | 34 µM | 
